Publication PMC6719172, “Inhibition of CpLIP2 Lipase Hydrolytic Activity by Four Flavonols (Galangin, Kaempferol, Quercetin, Myricetin) Compared to Orlistat and Their Binding Mechanisms Studied by Quenching of Fluorescence” (Molecules, 2019)

Legend:
[1] = target: T1, CpLIP2 lipase (Candida parapsilosis, UniProt Q8NIN8); assay: Inhibition of CpLIP2 hydrolytic activity (ethyl oleate hydrolysis, GC); type: biochemical; conditions: for Ki: non-competitive or uncompetitive model
Method: The effect of inhibitor concentrations on the hydrolysis reaction rate in standard conditions was assumed to follow either a non-competitive or an uncompetitive model, corresponding to Equation (1):(1) Ki=I/ V0/Vi−1 where V0 and Vi are the initial rates of the reaction without or with inhibitor at concentration I.
Standard CpLIP2 hydrolytic activity measurement. Hydrolysis activities were determined by measuring the initial rates of fatty acid and esters production (µmol·min^−1·mL^−1), using ethyl oleate (C18:1, EE) as substrates. Specific activity is the total activity expressed in µmol·min^−1·mL^−1 in relation to protein concentration (mg·mL^−1). Experiments were conducted as described by. Hydrolysis of ethyl oleate (EO) was performed in aqueous emulsions at 30 °C. This emulsion consisted of 100 µmol·mL^−1 EO emulsified by sonication (Branson Sonifier 250, 20 s, 200 watts, 145 µm amplitude) in an aqueous solution of 20 g·L^−1 poly vinyl alcohol. The reactions of hydrolysis were prepared in glass test tube by adding 100 μL of ethyl oleate emulsion to 800 µL of sodium phosphate buffer 50 mM, pH 6.5; then the solutions were incubated in water bath at 30 °C for 5 min. The reaction was started by the addition of 100 µL of enzyme solution of CpLIP2 with final concentration 3 µg·mL^−1 with activity 2000 U/mL.
The enzyme solution was pre-incubated at 25 °C, with continuous stirring at 350 rpm. Pre-incubation was conducted with 1980 µL CpLIP2 lipase diluted in sodium NaH2PO4/Na2HPO4 phosphate buffer (50 mM, pH 6.5) containing 20 µL absolute EtOH at 2 different times (1 and 30 min). This pre-incubation phase was conducted in closed vials placed during 2 h on a Radleys StarFish Multi-Experiment Workstation. The reaction was conducted for 15 min at 30 °C, and then stopped by adding 950 µL of a mixture of ethanol/sulphuric acid (100:0.8, v/v). After the addition of 50 µL of internal standards (ethanolic solution of pentadecanoic acid and its ethyl and methyl esters, 1 µmol each), lipids were extracted from the mixture with 1 mL of hexane. Samples were then prepared for analyzing esters and free fatty acids by gas chromatography (GC) as follows. Hexane extract (200 µL) was reacted with 25 µL pyridine and 25 µL N-methyl-tri (methylsilyl)-trifluoroacetamide (MSTFA) as silylating agent. Mixtures were incubated in water bath at 50 °C for 20 min, and then samples were ready for analysis. Reaction rates were determined by the analysis of fat composition by capillary gas chromatography after 15 min reaction. It was checked that less than 30% of the total substrate was converted at the end of the 15 min reaction.
A Shimadzu GC 2010 plus gas chromatograph equipped with a flame ionization detector, an automatic sampler (injected volume 0.1 μL) and a split/splitless injector was used for analysis. The capillary column was a DB-5ht (15 m × 0.25 mm, Phenomenex, Le Pecq, France). The helium carrier flow was 1 mL min^−1and the split ratio was 1:50. Temperature conditions were, for reactions with individual substrates: injector 280 °C, detector 290 °C, oven 200–225 °C at 10 °C min^−1 then to 260 °C at 35 °C·min^−1 for ethyl ester (EE) and fatty acid (FA) of C18:1. Calibration curves were realized using emulsions of mixtures of FA and monoesters prepared according to the same protocol, without enzyme and alcohol.
In order to measure the residual lipase activity in the presence of potential inhibitors, the previous method was conducted in the presence and absence of the inhibitors. For each potential inhibitor, the lipase-catalyzed rate of hydrolysis was evaluated after a pre-incubation period between the lipase and the potential inhibitors, which were solubilized in absolute ethanol at 1% of final concentration. The preincubation was performed at 25 °C with continuous stirring at 350 rpm with different concentration of inhibitors (14, 27.5, 55 µM) which represented, respectively 25, 50, 100-fold the final lipase concentration (0.55 µM). […]

[2] = target: T1, CpLIP2 lipase; assay: Fluorescence resonance energy transfer between CpLIP2 and flavonols (Förster theory); type: binding
Source text: Fluorescence emission spectra of CpLIP2 lipase overlap the UV absorption spectrum of each flavonol studied, that may induce fluorescence resonance energy transfer (FRET) governed by the binding distance r between the protein behaving as energy donor and the flavonol energy acceptor. The binding distance r can be calculated via Förster theory with the following Equations (10) and (11):(10) E=1−F/ F0=R06/ R06+r^6 where E is the energy transfer efficiency, which is the photons fraction absorbed and transferred by the donor to the acceptor, F and F0 are the fluorescence intensities of donor (CpLIP2) in the presence or absence of acceptor (flavonol) at the same concentrations. The parameter r is the distance between acceptor and donor, and R0 is the Förster distance, which is the critical energy transfer distance when 50% of the excitation energy is transferred from the donor to the acceptor. […] The value of R0 ranges from 20–90 Å for biological macromolecules.

[3] = target: T1, CpLIP2 lipase; assay: Fluorescence emission spectrum of CpLIP2 inhibited by THL; type: binding; conditions: 20-fold molar excess THL, pre-incubation at 25 °C for 30 min, excitation 285 nm
Method: As mentioned above, a mixture of 300 µL was pipetted in each well. 190 µL sodium phosphate buffer 50 mM, pH 7.0 with 100 µL of NaCl: EtOH (8:2, v/v) solution. […] In parallel, native and denatured lipases without THL were incubated in the same conditions. Denaturation of lipase was done by heating in water bath at 100 °C for 20 min.

[4] = target: C. rugosa commercial lipase; set-up: method as in doi:10.1016/j.molcatb.2006.02.012; conditions: cited from earlier work

T1 sequence (Q8NIN8 entry or part of it): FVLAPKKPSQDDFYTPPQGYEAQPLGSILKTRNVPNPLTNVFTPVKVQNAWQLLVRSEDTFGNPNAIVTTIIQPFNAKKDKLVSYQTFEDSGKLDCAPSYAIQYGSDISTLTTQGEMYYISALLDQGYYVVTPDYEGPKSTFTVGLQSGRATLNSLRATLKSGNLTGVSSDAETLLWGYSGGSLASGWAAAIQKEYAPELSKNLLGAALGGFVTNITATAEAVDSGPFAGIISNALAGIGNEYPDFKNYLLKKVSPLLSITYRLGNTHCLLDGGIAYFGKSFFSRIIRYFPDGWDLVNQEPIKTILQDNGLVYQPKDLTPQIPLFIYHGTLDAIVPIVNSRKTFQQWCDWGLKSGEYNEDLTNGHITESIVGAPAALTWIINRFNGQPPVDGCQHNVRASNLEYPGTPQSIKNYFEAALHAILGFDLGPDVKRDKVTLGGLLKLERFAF

| Molecule | Ki ([1]; estimated after 1 min of pre-incubation) [µM] | Ki ([1]; estimated after 30 min of pre-incubation) [µM] | inhibition of CpLIP2 activity ([1]; after 1 min pre-incubation, concentration not given) [%] | inhibition at 14 µM ([1]; read-out: inhibition of CpLIP2 catalytic activity) [%] | remaining activity at 14 µM ([1]; read-out: residual activity, 14 µM (25-fold molar excess), 1 min pre-incubation) [%] | remaining activity at 27.5 µM ([1]; read-out: residual activity, 27.5 µM (50-fold), 1 min pre-incubation) [%] | remaining activity at 55 µM ([1]; read-out: residual activity, 55 µM (100-fold), 1 min pre-incubation) [%] | occurrence of FRET with CpLIP2 lipase [2] | blue shift of CpLIP2 fluorescence emission maximum [3] [nm] | IC50 [4] [µM] |
| --- | --- | --- | --- | --- | --- | --- | --- | --- | --- | --- |
| CCCCCCCCCCC[C@@H](C[C@@H]1OC(=O)[C@H]1CCCCCC)OC(=O)[C@H](CC(C)C)NC=O [THL, tetrahydrolipstatin, reference compound] | 1.2 | 0.6 | ~100 | 90 | 17.7 | 3.9 | 2.3 | no FRET occurred | 4 | – |
| (±)-catechin [reference compound] | – | – | – | – | – | – | – | – | – | 7500 |
